Results taken from PubChem BioAssay AID1963854 (Molecular Pharmacology Branch, DTP, NCI, 2024).

System: 186277-243-T-J2-PDC complex spheroid viability
Assay: Anticancer human tumor 186277-243-T-J2-PDC patient-derived colon adenocarcinoma cell line growth inhibition [POLQ]
Conditions: for IC50: curve of first compound; for viability, T/C: stronger effect = lower value
Experimental: Multicellular complex tumor spheroid response to Polymerase (POL) inhibitors (novobiocin, ART-558, RP6685) in combination with a variety of drugs and investigational agents in selected tumor cell lines
The POL inhibitors (novobiocin, ART-558, and RP6685) were evaluated both individually and in combination with standard of care and investigational anticancer small molecules within a complex spheroid model of solid tumors. . Complex spheroids include a stromal component modeled by human endothelial cells (HUVEC) and fibroblasts modeled by human mesenchymal stem cells (MSCs). The concentration ranges selected for each drug and investigational agent were based upon clinically achievable concentrations if the clinical Cmax of the agent was known.
Compounds. The drugs and investigational agents: novobiocin (NSC847541), ART-558 (NSC835418), RP-6685 (NSC848927), peposertib (NSC802822), ceralasertib (NSC780249), elimusertib (NSC800525), camonsertib (NSC841442), AZD-1390 (NSC803789), olaparib (NSC753686), talazoparib (NSC767125), rucaparib (NSC756644), sotorasib (NSC818433), MRTX-1133 (NSC836407), SN-38 (NSC673596), topotecan (NSC609699), epotoside (NSC141540), doxorubicin (NSC123127), gemcitabine (NSC613327), 5-fluorouracil (NSC19893), paclitaxel (NSC125973), vemurafenib (NSC761431), MSA-2 (NSC828583), SN-011 (NSC837082), adavosertib (NSC754352), prexasertib (NSC758257), carboplatin (NSC241240) and oxaliplatin (NSC266046), were obtained from the National Cancer Institute (NCI) Developmental Therapeutics Program Chemical Repository (21). The FDA-approved anticancer drug set is available from the Developmental Therapeutics Program at https://dtp.cancer.gov/organization/dscb/obtaining/. […] The stock solutions were prepared in dimethyl sulfoxide (DMSO, Sigma-Aldrich, St. Louis, MO, cat. D2650), except for the platinum compounds which were prepared in saline (Quality Biological, Gaithersburg, MD, cat. 114-055-101), at 800-fold the tested concentration and stored at -70 degrees C prior to their use. All drugs and investigational agents were tested over a range starting from a high concentration at or near the clinical Cmax and decreasing in half-log increments. If the clinical Cmax for an agent had not been determined, the highest concentration tested was 10 microM, except for SN-38, which was tested at a high concentration of 1 microM.
Cell Culture. All cells were maintained in an incubator at 37 degrees C and 5% CO2 with 95% humidity. The PDC lines were cultured according to standard operating procedures established by the NCI PDMR (https://pdmr.cancer.gov). Table 3 of the manuscript, lists the cell lines along with the number of the three cell types plated to form the mct-spheroids and media for tumor cell growth. After thawing, all PDC lines, except 997537-175-T-J1-PDC and 415267-285-R-J2-PDC, were cultured in Matrigel-coated flasks prepared with a working solution of 1X Ham's F-12 nutrient mix, without supplementation (Thermo Fisher Scientific, cat. 11765054), 100 U/mL penicillin-streptomycin (Thermo Fisher Scientific, cat. 15140122), and 2.5% Matrigel (Corning Inc., Corning, NY, cat. 354248) for the first three passages. The two PDC lines 997537-175-T-J1-PDC and 415267-285-R-J2-PDC were cultured on uncoated flasks. The 857933-349-R-J2-PDC line was cultured in 6C/Colon 1B media containing advanced DMEM/F-12 (Thermo Fisher Scientific, cat. 12634028), 10 mM HEPES (Thermo Fisher Scientific, cat. 15630080), 1X GlutaMAX supplement (Thermo Fisher Scientific, cat. 35050061), 0.1 mg/mL primocin (InvivoGen, San Diego, CA, cat. ant-pm-2), 10% defined fetal bovine serum, heat inactivated (HyClone Laboratories Inc., Logan, UT, cat. SH30070.03HI), 50% L-WRN conditioned media (ATCC, cat. CRL-3276), 1.25 mM N-Acetyl-L-cysteine (Sigma-Aldrich, cat. A9165), 10 mM nicotinamide (Sigma-Aldrich, cat. N0636), 1X B-27 supplement (Thermo Fisher Scientific, cat. 17504044), 1X N-2 supplement (Thermo Fisher Scientific, cat. […]

[1] = second compound 0.0316 µM, first compound 0.00316 µM
[2] = second compound 0.0316 µM, first compound 0.01 µM
[3] = second compound 0.0316 µM, first compound 0.0316 µM
[4] = second compound 0.0316 µM, first compound 0.1 µM
[5] = second compound 0.1 µM, first compound 0.00316 µM
[6] = second compound 0.1 µM, first compound 0.01 µM
[7] = second compound 0.1 µM, first compound 0.0316 µM
[8] = second compound 0.1 µM, first compound 0.1 µM
[9] = second compound 0.316 µM, first compound 0.00316 µM
[10] = second compound 0.316 µM, first compound 0.01 µM
[11] = second compound 0.316 µM, first compound 0.0316 µM
[12] = second compound 0.316 µM, first compound 0.1 µM
[13] = second compound 1 µM, first compound 0.00316 µM
[14] = second compound 1 µM, first compound 0.01 µM
[15] = second compound 1 µM, first compound 0.0316 µM
[16] = second compound 1 µM, first compound 0.1 µM
[17] = second compound 3.16 µM, first compound 0.00316 µM
[18] = second compound 3.16 µM, first compound 0.01 µM
[19] = second compound 3.16 µM, first compound 0.0316 µM
[20] = second compound 3.16 µM, first compound 0.1 µM
[21] = second compound 10 µM, first compound 0.00316 µM
[22] = second compound 10 µM, first compound 0.01 µM
[23] = second compound 10 µM, first compound 0.0316 µM
[24] = second compound 10 µM, first compound 0.1 µM
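Also: spheroids exposed to compounds for seven days.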
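For viability, T/C in this document: 100% = DMSO vehicle control viability.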

In the case of CC[C@@]1(O)C(=O)OCc2c1cc1n(c2=O)Cc2cc3c(CN(C)C)c(O)ccc3nc2-1 + COC1C(OC(N)=O)C(O)C(Oc2ccc3c(O)c(NC(=O)c4ccc(O)c(CC=C(C)C)c4)c(=O)oc3c2C)OC1(C)C, the IC50 (second compound 0.0316 µM) is reported as 69.9 nM, the IC50 (second compound 0.1 µM) is reported as 60.7 nM and the IC50 (second compound 0.316 µM) is reported as 52.5 nM. For the same compound, the IC50 (second compound 1 µM) was 48.7 nM, the IC50 (second compound 3.16 µM) was 48.5 nM and the IC50 (second compound 10 µM) was 48 nM. It also gave a viability, T/C (second compound 0.0316 µM, first compound 0.000316 µM) of 105%, a viability, T/C (second compound 0.0316 µM, first compound 0.001 µM) of 103% and a viability, T/C [1] of 97.4%. It also gave a viability, T/C [2] of 114%, a viability, T/C [3] of 65.5% and a viability, T/C [4] of 43%. For the same compound, the viability, T/C (second compound 0.1 µM, first compound 0.000316 µM) was 96.1%, the viability, T/C (second compound 0.1 µM, first compound 0.001 µM) was 99.1% and the viability, T/C [5] was 117%. For the same compound, the viability, T/C [6] was 115%, the viability, T/C [7] was 60.4% and the viability, T/C [8] was 42%. It also gave a viability, T/C (second compound 0.316 µM, first compound 0.000316 µM) of 101%, a viability, T/C (second compound 0.316 µM, first compound 0.001 µM) of 113% and a viability, T/C [9] of 104%. The viability, T/C [10] was 109%, the viability, T/C [11] was 57.9% and the viability, T/C [12] was 40%. It also gave a viability, T/C (second compound 1 µM, first compound 0.000316 µM) of 105%, a viability, T/C (second compound 1 µM, first compound 0.001 µM) of 105% and a viability, T/C [13] of 97.1%. It also gave a viability, T/C [14] of 120%, a viability, T/C [15] of 57% and a viability, T/C [16] of 38.5%. For the same compound, the viability, T/C (second compound 3.16 µM, first compound 0.000316 µM) was 97.3%, the viability, T/C (second compound 3.16 µM, first compound 0.001 µM) was 107% and the viability, T/C [17] was 102%. The viability, T/C [18] was 107%, the viability, T/C [19] was 56.6% and the viability, T/C [20] was 38.9%. It also gave a viability, T/C (second compound 10 µM, first compound 0.000316 µM) of 107%, a viability, T/C (second compound 10 µM, first compound 0.001 µM) of 119% and a viability, T/C [21] of 104%. For the same compound, the viability, T/C [22] was 110%, the viability, T/C [23] was 56.3% and the viability, T/C [24] was 38.9%.
CCc1c2c(nc3ccc(O)cc13)-c1cc3c(c(=O)n1C2)COC(=O)[C@]3(O)CC + COC1C(OC(N)=O)C(O)C(Oc2ccc3c(O)c(NC(=O)c4ccc(O)c(CC=C(C)C)c4)c(=O)oc3c2C)OC1(C)C showed an IC50 (second compound 0.0316 µM) of 6.67 nM, an IC50 (second compound 0.1 µM) of 6.31 nM and an IC50 (second compound 0.316 µM) of 6.22 nM. For the same compound, the IC50 (second compound 1 µM) was 5.81 nM, the IC50 (second compound 3.16 µM) was 4.06 nM and the IC50 (second compound 10 µM) was 4.2 nM. It also gave a viability, T/C [1] of 60.8%, a viability, T/C [2] of 44.3% and a viability, T/C [3] of 21.4%. The viability, T/C [4] was 11.2%, the viability, T/C (second compound 0.0316 µM, first compound 0.316 µM) was 8.38% and the viability, T/C (second compound 0.0316 µM, first compound 1 µM) was 6.45%. The viability, T/C [5] was 65%, the viability, T/C [6] was 39.7% and the viability, T/C [7] was 21.9%. It also gave a viability, T/C [8] of 10.4%, a viability, T/C (second compound 0.1 µM, first compound 0.316 µM) of 8.32% and a viability, T/C (second compound 0.1 µM, first compound 1 µM) of 6.78%. The viability, T/C [9] was 61.1%, the viability, T/C [10] was 42% and the viability, T/C [11] was 22.4%. The viability, T/C [12] was 10.3%, the viability, T/C (second compound 0.316 µM, first compound 0.316 µM) was 7.76% and the viability, T/C (second compound 0.316 µM, first compound 1 µM) was 6.8%. It also gave a viability, T/C [13] of 61.8%, a viability, T/C [14] of 39.2% and a viability, T/C [15] of 21.6%. It also gave a viability, T/C [16] of 10.2%, a viability, T/C (second compound 1 µM, first compound 0.316 µM) of 8.22% and a viability, T/C (second compound 1 µM, first compound 1 µM) of 6.39%. The viability, T/C [17] was 53.1%, the viability, T/C [18] was 38.8% and the viability, T/C [19] was 19.7%. It also gave a viability, T/C [20] of 9.79%, a viability, T/C (second compound 3.16 µM, first compound 0.316 µM) of 7.9% and a viability, T/C (second compound 3.16 µM, first compound 1 µM) of 6.76%. The viability, T/C [21] was 52.9%, the viability, T/C [22] was 41.4% and the viability, T/C [23] was 19%. It also gave a viability, T/C [24] of 8.88%, a viability, T/C (second compound 10 µM, first compound 0.316 µM) of 8.76% and a viability, T/C (second compound 10 µM, first compound 1 µM) of 6.74%.
